# Like-named read-outs stand apart in the source and are kept apart here.
# Legend:
# HaCaT cells [1] = type: cell-based, human; conditions: for mitogenic effect compared with bleogen pB1: 1 μM, crystal violet assay; for EGFR dependence of proliferative/mitogenic effect: co-incubation with EGFR neutralizing antibody (clone LA1)
# Protocol: HaCaT (human keratinocyte), HUVEC-CS (endothelial cells) cells were cultured in Dulbecco's modification of Eagle's medium (DMEM) supplemented with 10% fetal bovine serum and 100 U/mL of penicillin and streptomycin. Normal Human Epidermal Keratinocytes adult purchased from Lifeline® cell technology were cultured in Lifeline® DermaLife K Medium. They were grown in a 5% CO2 humidified incubator at 37° C. HaCaT cells were stably transfected with pGL4.33[luc2P/SRE/Hygro] (Promega) and selected using 250 μg/mL hygromycin. Stable HaCaT cells expressing SRE luciferase reporter were maintained with 250 μg/mL hygromycin.
# Cell proliferation was determined using crystal violet staining. […] 3417-Da-peptide aB1 is a CRP isolated from Achyranthes bidentata with the amino acid sequence […] (SEQ ID NO:11). Crystal violet staining was performed as previously described. Briefly, after the incubation period, the wells were fixed with 4% buffered paraformaldehyde for 20 min. The cells were then stained with 0.25% crystal violet in 20% methanol for 15 min. The excess crystal violet stain was rinsed with distilled water for 4-5 times and air-dried. Glacial acetic acid (10%) in Milli-Q water was added to extract the crystal violet stain. The absorbance was then measured at 595 nm using a microplate reader (Tecan Infinite® 200 Pro, Switzerland).
# [2] = Heat stability (100° C., RP-HPLC); type: physicochemical
# Protocol: Samples were collected at various time points (0, 30, 60, and 120 min).
# [3] = tested on: STZ-induced diabetic C57BL/6 mice; experiment: Full-thickness splinted excisional wound healing in streptozotocin-induced diabetic C57BL/6 mice; type: in vivo, mouse; conditions: 1 nmol/wound topical, five consecutive days
# Protocol: (§1) Full-thickness 5-mm splinted excisional wounding of mice was performed. Briefly, mice were anesthetized using an intraperitoneal injection of sodium pentobarbital (50 mg kg^−1). The hair of the back was shaved with an electric clipper followed by a depilatory cream. Using a 5-mm-diameter sterile biopsy punch, symmetrical full-thickness excisional wounds were created. Splints were placed around the wound using adhesive glue and secured with four interrupted sutures. The wounds and splints were covered with Tegaderm (3M, US). At indicated days within the 14 days post-injury course, wound diameters were measured. The size of wound was calculated from the average of two diameter measurements along the x and y axis.
# Diabetes was induced into C57BL/6 mice by two intraperitoneal injection (80 mg/kg) of STZ at day 1 and 5. Starting from day 8, blood glucose was monitored regularly for two weeks. […] Blood glucose was also monitored at day 14 post-injury to ensure the mice are diabetic.
# physchem = conditions: buffer
# Protocol: (§3) Samples were collected at various time points.
# (§4) All collected samples from various stability assays were analyzed by RP-HPLC with a linear gradient of mobile phase A (0.05% TFA/H2O) and mobile phase B (0.05% TFA/ACN) on aeris peptide XB-C18 column (Phenomenex, US). The resulting peaks were collected and identified by MALDI-TOF MS. The results were expressed as percentage of initial concentration using the peak area of the HPLC profile.
# EGFR = EGFR (Homo sapiens, UniProt P00533); experiment: TR-FRET EGFR ligand binding assay (competitive displacement of biotin-EGF); design: purchased PerkinElmer
# Protocol: TR-FRET ratio was measured using a microplate reader in dual emission mode (Excitation: 340 nm, emission: 665 nm and 615 nm) (Cytation 1, US). […] (SEQ ID NO:11) or roseltide rT7 with an amino acid sequence of […] (SEQ ID NO:17) were used as negative control.
# [4] = tested on: pepsin, trypsin, pronase, human neutrophil elastase; experiment: in vitro
# Protocol: as §3, §4
# [5] = tested on: pepsin, trypsin, pronase, human neutrophil elastase; experiment: Proteolytic stability against a panel of proteases; conditions: disulfide bridges reduced and S-alkylated by iodoacetamide
# Protocol: as §3, §4
# c-Jun = experiment: Gene expression analysis (qPCR) of c-Jun in HaCaT cells; type: cell-based, human; conditions: 2 h treatment
# Protocol: (§2) Total RNA was extracted from HaCaT and primary human keratinocytes using PureLink™ RNA mini kit (Thermo Fisher Scientific, US). First-strand cDNA was synthesised from 600 ng of total RNA using SuperScript™ II Reverse Transcriptase and Oligo(dT)12-18 (Thermo Fisher Scientific, US) according to the manufacturer's instructions. Quantitative PCR (qPCR) was performed with iTaq Universal SYBR Green Supermix (Bio-Rad, US) on a CFX96 Touch Real-Time PCR Detection System (Bio-Rad, US) for 40 cycles. PCR reaction (20 μL): 3 μL cDNA, 1 μL primer mix (10 μM), 6 μL DEPC-treated water and 10 μL mastermix. […] GAPDH was used as a housekeeping gene for normalization. Fold changes of gene expressions with c-fos and c-Jun were calculated using the 2^−ΔΔCT method.
# HaCaT cells [6] = experiment: Cell migration scratch assay; type: cell-based, human; conditions: data not shown
# Protocol: Cell migration was monitored using the scratch assay. Briefly, HaCaT cells were seeded into 2 well silicone inserts with a defined gap of 500 μm (ibidi, Germany). […] After incubation for 8 h, the wells were photographed using inverted phase-contrast microscope. Images were analyzed for the percentage of cell-free area using the Wimasis image analysis platform.
# C57BL/6 mice = experiment: Full-thickness splinted excisional wound healing in C57BL/6 mice; type: in vivo, mouse; conditions: topical, three consecutive days; bleogen pB1 10 nmol/wound, EGF 1 nmol/wound; vs saline
# Protocol: C57BL/6 mice were obtained from Vital Rital Laboratories (Beijing, China). […] All experiments were approved and performed in accordance with the institutional guidelines of the Experimental Animal Center of the Chinese Academy of Medical Science (Beijing, China).
# as §1
# Full-thickness 5 mm splinted excisional wounding of mice was performed on C57BL/6 mice as described above.
# newborn ICR mice = experiment: Newborn mice model for incisor eruption; type: in vivo, mouse; conditions: 3 mg/kg subcutaneous, five consecutive days; saline control 153 h
# Protocol: ICR mice were obtained from Vital Rital Laboratories (Beijing, China). […] All experiments were approved and performed in accordance with the institutional guidelines of the Experimental Animal Center of the Chinese Academy of Medical Science (Beijing, China). Subcutaneous injections were made for five consecutive days in the nape of the neck of the newborn mice starting from the day of birth (day 0). […] Incisor eruption was recorded daily by visual inspection. Incisor eruption was defined as the time at which a given tooth first pierced the oral epithelium.
# HUVEC-CS cells = experiment: Endothelial tube formation assay; type: cell-based; conditions: data not shown
# Protocol: Endothelial tube formation assay was performed using a μ-slide (ibidi, Germany). Briefly, 10 μL of gel matrix (BD Matrigel™ Basement Membrane Matrix) was casted onto each μ-slide well and left to solidify. […] After incubation for 2 h, the wells were photographed using inverted phase-contrast microscope. Images were analyzed for the numbering of branching points using the Wimasis image analysis platform.
# c-fos = experiment: Gene expression analysis (qPCR) of c-fos in HaCaT cells; type: cell-based, human; conditions: 2 h treatment
# Protocol: as §2
# Chain of EGFR (P00533 25-645 limits assumed): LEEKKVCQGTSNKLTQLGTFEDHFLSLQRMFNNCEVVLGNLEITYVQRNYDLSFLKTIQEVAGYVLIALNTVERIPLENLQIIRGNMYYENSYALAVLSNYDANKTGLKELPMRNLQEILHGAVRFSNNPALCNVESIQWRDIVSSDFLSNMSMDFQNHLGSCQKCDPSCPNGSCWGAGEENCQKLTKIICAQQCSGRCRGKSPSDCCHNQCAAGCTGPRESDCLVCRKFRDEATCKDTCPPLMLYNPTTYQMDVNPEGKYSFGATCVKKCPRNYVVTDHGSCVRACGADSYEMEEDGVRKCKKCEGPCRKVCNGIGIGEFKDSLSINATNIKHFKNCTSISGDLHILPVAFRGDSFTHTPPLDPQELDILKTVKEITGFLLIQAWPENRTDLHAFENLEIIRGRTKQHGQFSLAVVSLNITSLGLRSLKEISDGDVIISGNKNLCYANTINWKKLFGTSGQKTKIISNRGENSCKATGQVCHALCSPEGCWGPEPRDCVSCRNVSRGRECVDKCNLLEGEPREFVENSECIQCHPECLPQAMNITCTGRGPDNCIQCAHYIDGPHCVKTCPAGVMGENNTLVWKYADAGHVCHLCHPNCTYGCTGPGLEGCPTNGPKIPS
compound,measurement,setting,value
CC[C@H](C)[C@@H]1NC(=O)[C@H](CCC(=O)O)NC(=O)[C@H]([C@@H](C)O)NC(=O)[C@@H]2CSSC[C@@H]3NC(=O)[C@H](Cc4ccccc4)NC(=O)[C@H](CC(N)=O)NC(=O)[C@H](CO)NC(=O)[C@H](CSSC[C@H](NC(=O)[C@@H](N)CCC(N)=O)C(=O)N[C@@H](CCCCN)C(=O)N4CCC[C@H]4C(=O)N[C@@H](CC(N)=O)C(=O)NCC(=O)N[C@@H](C)C(=O)N[C@@H](CCCCN)C(=O)N2)NC(=O)[C@H](CSSC[C@@H](C(=O)N[C@@H](C)C(=O)N[C@@H](CC(N)=O)C(=O)N[C@@H](CCCNC(=N)N)C(=O)O)NC(=O)[C@H]([C@@H](C)O)NC(=O)CNC(=O)[C@H](CO)NC(=O)[C@@H](CCCCN)NC(=O)[C@H](CCC(N)=O)NC(=O)CNC(=O)[C@H](C)NC(=O)[C@H](Cc2ccc(O)cc2)NC(=O)[C@H](CCCNC(=N)N)NC(=O)[C@H](CC(C)C)NC3=O)NC(=O)[C@@H]2CCCN2C(=O)[C@@H]2CCCN2C(=O)[C@H]([C@@H](C)CC)NC(=O)[C@H](CO)NC1=O [[K29k]pB1],mitogenic effect compared with bleogen pB1,HaCaT cells [1]; 72 h,more mitogenic than bleogen pB1
same,EGFR dependence of proliferative/mitogenic effect,HaCaT cells [1],EGFR-dependent
same,half-life at 0.1 M,[2],> 8.33 h
same,wound closure compared with EGF and bleogen pB1 in STZ-diabetic mice,[3],"at a similar rate as EGF, and much faster than bleogen pB1"
same,wound healing rate vs vehicle control in STZ-induced diabetic mice,[3],healed at a significantly faster rate starting from day 4 post-injury
same,wound closure compared with EGF and bleogen pB1 in STZ-diabetic mice,[3]; listed as K29k pB1,comparable
same,half-life at 0.1 M,physchem,> 8.33 h
same,EGFR affinity / EGF-like biological activity compared with bleogen pB1 (EGFR displacement),EGFR,higher affinity than bleogen pB1
same,potency relative to bleogen pB1 (fold more potent),EGFR,approximately 60 fold
same,IC50,"EGFR; TR-FRET, mean±S.D., three independent experiments, read-out: IC50, displacement of biotin-EGF from EGFR",27 ± 0.05 nM
same,EGFR affinity / EGF-like biological activity compared with bleogen pB1 (EGFR displacement),EGFR; listed as K29k pB1,increased EGF-like biological activities
same,potency relative to bleogen pB1 (fold more potent),EGFR; listed as K29k pB1,60 fold
same,half-life at 0.1 M,[4],> 8.33 h
"CC[C@H](C)[C@H](NC(=O)[C@H](CCC(=O)O)NC(=O)[C@@H](NC(=O)[C@H](CSCC(N)=O)NC(=O)[C@H](CCCCN)NC(=O)[C@H](C)NC(=O)CNC(=O)[C@H](CC(N)=O)NC(=O)[C@@H]1CCCN1C(=O)[C@H](CCCCN)NC(=O)[C@H](CSCC(N)=O)NC(=O)[C@@H](N)CCC(N)=O)[C@@H](C)O)C(=O)N[C@@H](CO)C(=O)N[C@H](C(=O)N1CCC[C@H]1C(=O)N1CCC[C@H]1C(=O)N[C@@H](CSCC(N)=O)C(=O)N[C@@H](CSCC(N)=O)C(=O)N[C@@H](CO)C(=O)N[C@@H](CC(N)=O)C(=O)N[C@@H](Cc1ccccc1)C(=O)N[C@@H](CSCC(N)=O)C(=O)N[C@@H](CC(C)C)C(=O)N[C@@H](CCCNC(=N)N)C(=O)N[C@@H](Cc1ccc(O)cc1)C(=O)N[C@@H](C)C(=O)NCC(=O)N[C@@H](CCC(N)=O)C(=O)N[C@@H](CCCCN)C(=O)N[C@@H](CO)C(=O)NCC(=O)N[C@H](C(=O)N[C@@H](CSCC(N)=O)C(=O)N[C@@H](C)C(=O)N[C@@H](CC(N)=O)C(=O)N[C@@H](CCCNC(=N)N)C(=O)O)[C@@H](C)O)[C@@H](C)CC [S-alkylated bleogen pB1, reference compound]",degradation by proteases (time),[5],within a couple of minutes
"COc1cc2ncnc(Nc3cccc(Cl)c3)c2cc1OC [AG1478, reference compound]",effect of co-incubation on bleogen pB1-induced HaCaT cell proliferation,"HaCaT cells [1]; serum-free medium, 72 h",substantially inhibited
CC[C@H](C)[C@@H]1NC(=O)[C@H](CCC(=O)O)NC(=O)[C@H]([C@@H](C)O)NC(=O)[C@@H]2CSSC[C@@H]3NC(=O)[C@H](Cc4ccccc4)NC(=O)[C@H](CC(N)=O)NC(=O)[C@H](CO)NC(=O)[C@H](CSSC[C@H](NC(=O)[C@@H](N)CCC(N)=O)C(=O)N[C@@H](CCCCN)C(=O)N4CCC[C@H]4C(=O)N[C@@H](CC(N)=O)C(=O)NCC(=O)N[C@@H](C)C(=O)N[C@@H](CCCCN)C(=O)N2)NC(=O)[C@H](CSSC[C@@H](C(=O)N[C@@H](C)C(=O)N[C@@H](CC(N)=O)C(=O)N[C@@H](CCCNC(=N)N)C(=O)O)NC(=O)[C@H]([C@@H](C)O)NC(=O)CNC(=O)[C@H](CO)NC(=O)[C@H](CCCCN)NC(=O)[C@H](CCC(N)=O)NC(=O)CNC(=O)[C@H](C)NC(=O)[C@@H](Cc2ccc(O)cc2)NC(=O)[C@H](CCCNC(=N)N)NC(=O)[C@H](CC(C)C)NC3=O)NC(=O)[C@@H]2CCCN2C(=O)[C@@H]2CCCN2C(=O)[C@H]([C@@H](C)CC)NC(=O)[C@H](CO)NC1=O [[Y25y]pB1],mitogenic effect compared with bleogen pB1,HaCaT cells [1]; 72 h,more mitogenic than bleogen pB1
same,EGFR dependence of proliferative/mitogenic effect,HaCaT cells [1],EGFR-dependent
same,EGFR affinity / EGF-like biological activity compared with bleogen pB1 (EGFR displacement),EGFR,higher affinity than bleogen pB1
same,IC50,EGFR,580 ± 0.089 nM
same,EGFR affinity / EGF-like biological activity compared with bleogen pB1 (EGFR displacement),EGFR; listed as Y25y pB1,increased EGF-like biological activities
"NCESGTSCIPGAQHNCCSGVCVPIVTIFYGVCY (listed as Achyranthes bidentata) [aB1, reference compound]","HaCaT cell proliferation, concentration up to which not active",HaCaT cells [1]; negative control,> 10 µM
"N#CC(=C(/N)Sc1ccccc1N)/C(C#N)=C(\N)Sc1ccccc1N [U0126, reference compound]",effect of co-incubation on bleogen pB1-induced HaCaT cell proliferation,HaCaT cells [1],substantially inhibited
"EGF: epidermal growth factor, SEQ ID NO:10, positive control",wound healing rate vs vehicle control in STZ-induced diabetic mice,[3],healed at a significantly faster rate starting from day 4 post-injury
same,mRNA expression of c-Jun,c-Jun,significantly upregulate
same,HaCaT cell migration,HaCaT cells [6],accelerate
same,"wound healing, full-thickness excision wound model in C57 mice",C57BL/6 mice,accelerated wound healing from day 3 to day 11
same,time of incisor eruption in newborn mice,newborn ICR mice,100 h
same,endothelial cell tube formation,HUVEC-CS cells,accelerate
same,mRNA expression of c-fos,c-fos,significantly upregulate

# From patent US20220257706A1, “EPIDERMAL GROWTH FACTOR RECEPTOR (EGFR) LIGANDS” (NANYANG TECHNOLOGICAL UNIVERSITY, priority 2019, published 2022)
